Columns and labels:
[1] = system: HIV-1 infection of MT2 cells; assay: Inhibition of HIV-1 infection of uninfected MT2 cells; assay type: cell-based; conditions: compound in DMSO, 30 min before HIV
Experimental: BBNH and Fe(III)-BBNH complex at various concentrations were examined for the ability to inhibit HIV-1 infection of uninfected MT2 cells. Aliquots of a solution of the compounds in dimethyl sulfoxide were added to uninfected MT2 cells (2×10^5 cells/ml) in RPMI medium containing 10% fetal bovine serum to provide defined final concentrations of test compound. The cells and test compounds were incubated for 30 minutes at 37° C., then inoculated with a suspension of HIV virions. The cells, test compounds and HIV were incubated for 18 h at 37° C., then the cells were collected by centrifugation, washed, and resuspended in RPMI medium containing 10% fetal bovine serum and containing the same concentration of test compound as initially employed. The cells were then cultured at 37° C. (with culture medium changes as required). HIV infection was assessed by microscopic examination of HIV-induced cytopathicity (syncytium) and/or by analysis of HIV p24 antigen levels in the culture supernatants.

MT2 cells = assay: Cytotoxic activity against uninfected MT2 cells (XTT assay); assay type: cell-based, human; conditions: 4 days at 37° C., in DMSO
Experimental: BBNH and Fe(III)-BBNH complex at various concentrations were examined for cytotoxic activity against uninfected MT2 cells. Aliquots of a solution of the compounds in dimethyl sulfoxide were added to the MT2 cells (2×10^5 cells/ml) in RPMI medium containing 10% fetal bovine serum to provide defined final concentrations of test compound. The cells and test compounds were cultured for 4 days at 37° C., in the presence of 5% CO2 and then cytotoxic effect of the compounds was analyzed by using the standard XTT assay. The CC50 calculated from the results were 10±0.5 μM for BBNH and more than 1000 μM for Fe(III)-BBNH.

[2] = Solubility in a water medium (general statement); assay type: physicochemical
[3] = system: HIV-1 replication in cells; assay: Inhibition of HIV-1 replication in infected cells (general statement); assay type: cell-based
[4] = target: T1, HIV-1 reverse transcriptase (p51/p66 RT), RNAse H activity (Human immunodeficiency virus type 1 group M subtype B, UniProt P03366); assay: Inhibition of RNAse H activity of RT; assay type: biochemical
T1 construct: 10 ng of p51/p66 heterodimeric RT per assay were used
Experimental: BBNH and Fe(III)-BBNH complex at various concentrations were examined for the ability to inhibit RNA dependent and DNA dependent DNA polymerase activities as well as RNAse H activity of HIV-1 reverse transcriptase (RT RDDP, RT DDDP, and RT RNAse H, respectively). To analyze RT RDDP and RT DDDP the following reaction mixture (100 μl total volume) was used: 50 mM Tris-HCl (pH 7.8), 60 mM KCl, 10 mM MgCl2, 10 ng of p51/p66 RT, 0.1-0.5 units of template/primer, and 0.5-25 μM [^3 H]dNTP. Aliquots of the test compounds dissolved in DMSO were added to the reaction mixtures, incubated for 10-20 min. at 37° C. and than quenched with 500 μl of cold 20 mM sodium pyrophosphate in 10% dichloroacetic acid. After 10 min. on ice, the samples were filtered on Whatman 934-AH glass fiber filters and washed with 10% dichloroacetic acid and ethanol, and the radioactivity was determined by liquid scintillation analysis. To analyze RT RNAse H the following reaction mixture (50 μl total volume) was used: 5OmM Tris-HCl (pH 8.0), 60 mM KCl, 8 mM MgCl2, and variable amounts of ([^3 H]rG)-poly(dC). Generally, 10 ng of p51/p66 heterodimeric RT per assay were used. Aliquots of the test compounds dissolved in DMSO were added to the reaction mixtures, incubated for 20 min. at 37° C. and than quenched by placing the tubes on ice followed by the addition of 100 μl of cold 7% perchloric acid. After 10 min. on ice, the samples were centrifuged at 12,000 g for 15 min. 100 μl of the supernatants were carefully removed, and the radioactivity was determined by liquid scintillation analysis.

[5] = Solubility of Fe(III)BBNH in organic solutions with various salts and pH; assay type: physicochemical
Experimental: The samples of Fe(III)BBNH (1 mg of each) were placed in 1 ml of following range of solvents:
The samples were intensively agitated during three hours at room temperature using a rotator. After that the samples were centrifuged at 10,000 g for 10 min. The supernatants (500 μl each) were separated and then dried by using a speed-vac centrifuge. Each sample was dissolved in 500 μl DMSO and the aliquots (50 μl each) were transferred to 96-well plate. The optical densities were determined at λ400 nm using a microplate reader. Fe(III)BBNH concentrations in the samples were then determined by using the calibration shown in Example 4A. Each concentration of Fe(III)BBNH was analyzed in triplicates.

HIV-1 RT = HIV-1 RT (Human immunodeficiency virus type 1 BH10, UniProt P03366); assay: In vitro inhibition of HIV-1 RT enzymatic activities (RDDP, RNase H, DDDP); assay type: biochemical
[6] = Water solubility of Fe(III)BBNH in various Pluronic solutions; assay type: physicochemical; conditions: 180 min
Experimental: The samples of Fe(III)BBNH (1 mg of each) were placed in 1 ml of various water solutions of Pluronics. The samples were intensively agitated during three hours at room temperature using a rotator. The samples were then centrifuged at 10,000g for 10 min. The supernatants (500 μl each) were separated and then dried using a speed-vac centrifuge. Each sample was dissolved in 500 μl DMSO and aliquots (50 μl each) were transferred to 96-well plate. The optical densities were determined at λ400 nm using a microplate. The test compound concentrations in the samples were then determined by using the calibration shown in Example 4A. Each concentration of Fe(III)BBNH was analyzed in triplicates. Each concentration of Fe306 was measured in triplicates.

## CC(C)(C)c1ccc(C(=O)NN=Cc2c(O)ccc3ccccc23)cc1.C[O-].[Cl-].[Cl-].[Fe+3] [Fe(III)-BBNH]
[1]
  IC50: > 50 µM
MT2 cells
  CC50: > 1000 µM
[2]
  solubility in a water medium: practically insoluble in a water medium
[3]
  antiviral activity against HIV-1 replication in cells: no antiviral activity against HIV-1 replication in cells
[3]; water-organic formulations
  inhibition of HIV-1 replication in cells, water-organic formulations: very low activity
[4]; 10 min. preincubation
  IC50: 0.5 ± 0.07 µM
  Ratio BBNH/Fe(III)-BBNH (IC50), RT RNase H: 7
[4]; No preincubation
  IC50: 0.9 ± 0.5 µM
  Ratio BBNH/Fe(III)-BBNH (IC50), RT RNase H: > 50
[5]; Acetonitrile:10% Ammonium Acetate (0.01 M) pH 3.0
  Concentration of Fe306 dissolved in the sample: 125.7 µg/mL
[5]; Acetonitrile:10% Ammonium Acetate (0.01 M) pH 5.0, 180 min
  Concentration of Fe306 dissolved in the sample: 223.9 µg/mL
[5]; Acetonitrile:10% Ammonium Acetate (0.01 M) pH 7.0, 180 min
  Concentration of Fe306 dissolved in the sample: 304.7 µg/mL
[5]; Acetonitrile:10% Ammonium Formate (0.01 M) pH 3.0
  Concentration of Fe306 dissolved in the sample: 172.9 µg/mL
[5]; Acetonitrile:10% Ammonium Formate (0.01 M) pH 5.0, 180 min
  Concentration of Fe306 dissolved in the sample: 233.6 µg/mL
[5]; Acetonitrile:10% Ammonium Formate (0.01 M) pH 6.2, 180 min
  Concentration of Fe306 dissolved in the sample: 200.1 µg/mL
[5]; Methanol:10% 0.01 M phosphate buffer pH 3.0
  Concentration of Fe306 dissolved in the sample: 14.4 µg/mL
[5]; Methanol:10% 0.01 M phosphate buffer pH 5.0, 180 min
  Concentration of Fe306 dissolved in the sample: 14.9 µg/mL
[5]; Methanol:10% Ammonium Acetate (0.01 M) pH 3.0
  Concentration of Fe306 dissolved in the sample: 26.2 µg/mL
[5]; Methanol:10% Ammonium Acetate (0.01 M) pH 5.0, 180 min
  Concentration of Fe306 dissolved in the sample: 76.6 µg/mL
[5]; Methanol:10% Ammonium Acetate (0.01 M) pH 7.0, 180 min
  Concentration of Fe306 dissolved in the sample: 94.4 µg/mL
[5]; Methanol:10% Ammonium Formate (0.01 M) pH 3.0
  Concentration of Fe306 dissolved in the sample: 50.9 µg/mL
[5]; Methanol:10% Ammonium Formate (0.01 M) pH 5.0, 180 min
  Concentration of Fe306 dissolved in the sample: 43.4 µg/mL
[5]; Methanol:10% Ammonium Formate (0.01 M) pH 6.2, 180 min
  Concentration of Fe306 dissolved in the sample: 31.2 µg/mL
HIV-1 RT
  inhibitory activity against RT in vitro compared to the parent uncomplexed BBNH: improved inhibitory activity compared to the parent uncomplexed BBNH
[6]; Pluronic F87 (2% w/v) in water
  Solubility of Fe(III)BBNH: 992.5 µg/mL
[6]; Pluronic F108 (2% w/v) in water
  Solubility of Fe(III)BBNH: 86.5 µg/mL
[6]; Pluronic F127 (2% w/v) in water
  Solubility of Fe(III)BBNH: 113.6 µg/mL
[6]; Pluronic L44 (2% w/v) in water
  Solubility of Fe(III)BBNH: 986.8 µg/mL
[6]; Pluronic L61 (1% w/v) in water
  Solubility of Fe(III)BBNH: 3.5 µg/mL
[6]; Pluronic L64 (2% w/v) in water
  Solubility of Fe(III)BBNH: 996.6 µg/mL
[6]; Pluronic L81 (2% w/v) in water
  Solubility of Fe(III)BBNH: 175.3 µg/mL
[6]; Pluronic P84 (1% w/v) in water
  Solubility of Fe(III)BBNH: 987.2 µg/mL
[6]; Pluronic P85 (1% w/v) in water
  Solubility of Fe(III)BBNH: 998.3 µg/mL
[6]; Pluronic P123 (2% w/v) in water
  Solubility of Fe(III)BBNH: 125.7 µg/mL
